Target: T1, OCT2 (Homo sapiens, UniProt O15244)
T1 construct: endogenous in cells; host or cells: human kidney organoid-derived monolayer (donor kidney-C)
T1 sequence (O15244 1-555): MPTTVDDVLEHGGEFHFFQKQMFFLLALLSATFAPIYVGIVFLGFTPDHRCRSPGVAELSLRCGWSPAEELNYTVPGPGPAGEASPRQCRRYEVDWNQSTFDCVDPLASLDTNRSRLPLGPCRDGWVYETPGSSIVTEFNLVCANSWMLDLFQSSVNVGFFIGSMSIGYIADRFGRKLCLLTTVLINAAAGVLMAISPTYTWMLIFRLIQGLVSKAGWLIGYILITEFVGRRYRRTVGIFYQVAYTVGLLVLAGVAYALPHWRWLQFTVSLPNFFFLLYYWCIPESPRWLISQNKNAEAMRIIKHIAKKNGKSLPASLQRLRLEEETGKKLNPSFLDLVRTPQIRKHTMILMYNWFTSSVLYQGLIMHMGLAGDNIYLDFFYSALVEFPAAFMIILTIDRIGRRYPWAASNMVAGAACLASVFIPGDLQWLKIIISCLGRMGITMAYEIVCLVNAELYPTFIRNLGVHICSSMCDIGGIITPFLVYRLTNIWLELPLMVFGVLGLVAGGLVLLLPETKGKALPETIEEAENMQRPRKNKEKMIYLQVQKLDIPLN
Test: Rhodamine transport assay, kidney-C monolayers
Format: cell-based
Details: 1 μM, 30 mins; day 7
Protocol: FIG. 28 illustrates fluorescence measurements for accumulated intracellular Rhodamine 123 for kidney-C cultures grown in KEM media, with or without addition of 1 uM decitabine (DAC) on day 2 after seeding, in the presence or absence of PSC833 (a specific P-gp inhibitor) and decynium-22 (a specific OCT2 inhibitor). A sample incubated with PBS only (without […]) was used as a negative control. RFU, relative fluorescence units.
Rhodamine transport from the basolateral compartment into kidney monolayers grown in either the KEM or DAC conditions as described in Example 9 was measured on day 7 after seeding in the presence or absence of the P-gp inhibitor PSC-833 and/or OCT2 inhibitor Decynium-22 as follows: • 1. Remove media and rinse cells using PBS. • 2. Add fresh buffer under one of the following conditions (37° C.): • 1. 1 μM Decynium-22, 30 mins, • 2. 1 μM PSC-833, 30 mins, • 3. 1 μM Decynium-22 and 1 μM PSC-833, 30 mins, or • 4. Untreated Control, 30 mins. • 3. Add Rhodamine 123 at a final concentration 250 nM to the basolateral compartment and incubate for 30 minutes at 37° C. • 4. Analyse cellular accumulation of Rhodamine 123 using fluorescence (Excitation λ 490 nm, Emission λ 520 nm). • 5. Assess accumulation differences.

cellular accumulation of Rhodamine: decreased accumulation
Structure (SMILES): CCN1/C(=C/c2ccc3ccccc3[n+]2CC)C=Cc2ccccc21.[I-] [Decynium-22]

— patent publication US20240240155A1, “Organoid-Derived Monolayers and Uses Thereof” (Hub Organoids IP B.V., priority 2021, published 2024)
